Results taken from ChEMBL document CHEMBL2062380, “Discovery of a novel pyrrole derivative 1-[5-(2-fluorophenyl)-1-(pyridin-3-ylsulfonyl)-1H-pyrrol-3-yl]-N-methylmethanamine fumarate (TAK-438) as a potassium-competitive acid blocker (P-CAB)” (J Med Chem, 2012).
Structures can show the parent of a compound that is named as a salt. The source made the active and inactive calls. The calls are words filed in the database; no cut-off is given here.

How the values were obtained:
[1] = Lipophilicity, log D of compound at pH 7.4; type: physicochemical; conditions: buffer
[2] = system: Rattus norvegicus; test: Inhibition of histamine-induced gastric acid secretion in pylorus-ligated Sprague Dawley rat at 1 mg/kg, iv administered 3 mins prior to histamine challenge measured after 3 hrs; type: functional; conditions: Stomach
[3] = Inhibition of swine H+/K+-ATPase after 30 mins by colorimetry; design: species or system Sus scrofa
[4] = system: Rattus norvegicus; test: Complete inhibition of histamine-induced gastric acid secretion in pylorus-ligated Sprague Dawley rat at 4 mg/kg, po measured after 3 hrs post histamine challenge; type: functional, organism-based; design: dose 4 mg/kg; conditions: Stomach
[5] = system: Rattus norvegicus; test: Inhibition of histamine-induced gastric acid secretion in po dosed pylorus-ligated Sprague-Dawley rat measured after 3 hrs post histamine challenge; type: functional, organism-based; conditions: Stomach
[6] = system: Canis familiaris; test: Inhibition histamine-induced gastric acid secretion in Heidenhain-pouch dog at 1 mg/kg, po measured after 2 days; type: functional, organism-based; design: dose 1 mg/kg; conditions: Canis lupus familiaris, Stomach
[7] = system: Canis familiaris; test: Inhibition histamine-induced gastric acid secretion in Heidenhain-pouch dog at 1 mg/kg, po administered 1 day post histamine challenge measured for 3 consecutive 30 mins time period after compound dosing; type: functional, organism-based; design: dose 1 mg/kg; conditions: Canis lupus familiaris, Stomach
[8] = system: Rattus norvegicus; test: Inhibition of histamine-induced gastric acid secretion in pylorus-ligated Sprague-Dawley rat at 8 mg/kg, po measured after 3 hrs post histamine challenge; type: functional, organism-based; design: dose 8 mg/kg; conditions: Stomach
[9] = system: Canis familiaris; test: Inhibition histamine-induced gastric acid secretion in Heidenhain-pouch dog at 1 mg/kg, po administered 1 tp 48 hrs prior histamine challenge measured for 3 consecutive 30 mins time period after compound dosing; type: functional, organism-based; design: dose 1 mg/kg; conditions: Canis lupus familiaris, Stomach

Row | SMILES | logD [1] | inhibition in vivo at 1 mg/kg [2] [%] | IC50 [3] [µM] | further results
1 | CNCc1cc(-c2ccc(F)cc2)n(S(=O)(=O)c2cccnc2)c1 | 1 | 85 | 0.046 | –
2 | CNCc1cc(-c2ccccc2)n(S(=O)(=O)c2ccc(OC)cc2)c1 | 1.5 | 95 | 0.03 | –
3 | CNCc1cc(-c2ccccc2)n(S(=O)(=O)c2cccs2)c1 | 1.2 | 69 | 0.051 | –
4 | CNCc1cc(-c2cccc(F)c2)n(S(=O)(=O)c2cccnc2)c1 | 1 | 92 | 0.02 | –
5 | CNCc1cc(-c2ccccc2)n(S(=O)(=O)c2cccnc2)c1 | 0.7 | 85 | 0.016 | –
6 | CNCc1cc(-c2ccccc2F)n(S(=O)(=O)c2cccnc2)c1 [VONOPRAZAN FUMARATE] | 0.4 | 98 | 0.019 | inhibition [4]: Active; inhibition [5]: Dose-dependent effect; inhibition [6]: Active; inhibition [7]: Active
7 | CNCc1cc(-c2ccccc2)n(S(=O)(=O)c2cccc(OC)c2)c1 | – | – | 0.011 | –
8 | Cc1c(OCC(F)(F)F)ccnc1C[S+]([O-])c1nc2ccccc2[nH]1 (stereo not drawn) | – | – | – | inhibition [8]: inactive; inhibition [9]: Active
9 | CNCc1cc(-c2ccccc2Cl)n(S(=O)(=O)c2cccnc2)c1 | 0.7 | 97 | 0.017 | –
10 | CNCc1cc(-c2ccccc2)n(S(=O)(=O)c2ccc(OC)nc2)c1 | 1.7 | 95 | 0.013 | –
11 | CNCc1cc(-c2ccccc2C#N)n(S(=O)(=O)c2cccnc2)c1 | -0.2 | 68 | 0.23 | –
12 | CNCc1cc(-c2ccccc2)n(S(=O)(=O)c2ccccn2)c1 | – | – | 0.17 | –
13 | CNCc1cc(-c2ccccc2)n(S(=O)(=O)c2ccc(C#N)nc2)c1 | 1.4 | 17 | 0.11 | –
14 | CNCc1cc(-c2ccccc2)n(S(=O)(=O)c2cccc(S(C)(=O)=O)c2)c1 | – | – | 0.078 | –
15 | CNCc1cc(-c2ccccc2C)n(S(=O)(=O)c2cccnc2)c1 | 1 | 95 | 0.046 | –
16 | CNCc1cc(-c2ccccc2)n(S(=O)(=O)c2ccsc2)c1 | 1.1 | 55 | 0.016 | –
17 | CNCc1cc(-c2ccccc2CO)n(S(=O)(=O)c2cccnc2)c1 | -0.3 | – | 2.2 | –
18 | CNCc1cc(-c2ccccc2C(F)(F)F)n(S(=O)(=O)c2cccnc2)c1 | 0.8 | 92 | 0.075 | –
19 | CNCc1cc(-c2ccccc2)n(S(=O)(=O)c2ccc(C)nc2)c1 | 1 | 83 | 0.034 | –
